Laboratory results as given in patent US9481648B2, “Kinase inhibitors” (Respivert Limited, priority 2013, dated 2016).

Columns and labels:
GSK 3α = GSK 3α (Homo sapiens (Human), UniProt P49840); assay: GSK 3α enzyme inhibition (FRET, Z-LYTE; Method 2); type: biochemical; settings: read-out: IC50 Values for Enzyme Inhibition GSK3α
Outline: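 Phosphorylation was taken from the donor (coumarin) to acceptor (fluorescein) emission ratio after 1 h protease development, which cleaves only unphosphorylated peptide. Before that, peptide (8 μM stock) plus ATP (40 μM stock) reacted 1 h. This followed a 105 min RT preincubation of GSK3-α with compound stocks of 10–0.01 μg/mL.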

Syk = Syk (Homo sapiens (Human), UniProt P43405); assay: Syk enzyme inhibition (FRET, Z-LYTE); type: biochemical
Experimental: (§1) The enzyme inhibitory activities of compounds disclosed herein are determined by FRET using synthetic peptides labelled with both donor and acceptor fluorophores (Z-LYTE, Invitrogen Ltd., Paisley, UK).
(§2) The relevant enzyme (3000 ng/mL or 2000 ng/mL respectively, 2.5 μL) is incubated with the test compound (either 1 μg/mL, 0.1 μg/mL, 0.01 μg/mL, or 0.001 μg/mL, 2.5 μL each) for 2 hr at RT. The FRET peptides (8 μM, 2.5 μL), and appropriate ATP solutions (2.5 μL, 800 μM for c-Src, and 60 μM ATP for Syk) are then added to the enzymes/compound mixtures and the mixture incubated for 1 hr. Development reagent (protease, 5 μL) is added for 1 hr prior to detection in a fluorescence microplate reader (Varioskan® Flash, ThermoFisher Scientific).
(§3) In all cases, the site-specific protease cleaves non-phosphorylated peptide only and eliminates the FRET signal. Phosphorylation levels of each reaction are calculated using the ratio of coumarin emission (donor) over fluorescein emission (acceptor), for which high ratios indicate high phosphorylation and low ratios indicate low phosphorylation levels.

[1] = system: β-catenin in d-U937 cells; assay: Accumulation of β catenin in d-U937 cells (assay m); type: cell-based, human
Experimental: U937 cells, a human monocytic cell line, are differentiated into macrophage-type cells by incubation with PMA (100 ng/mL) for between 48 to 72 hr. The cells are then incubated with either final concentrations of test compound or vehicle for 18 hr. The induction of β-catenin by the test compounds is stopped by replacing the media with 4% formaldehyde solution. Endogenous […] is neutralised by incubating with quenching buffer (100 μL, 0.1% sodium azide, 1% H2O2 in PBS with 0.05% Tween-20) for 20 min. The cells are washed with washing buffer (200 μL; PBS containing 0.05% Tween-20) and incubated with blocking solution (200 μL; 5% milk in PBS) for 1 hr, re-washed with washing buffer (200 μL) and then incubated overnight with anti-β-catenin antibody solution (50 μL) in 1% BSA/PBS (BD, Oxford, UK).
After washing with washing buffer (3×200 μL; PBS containing 0.05% Tween-20), cells are incubated with a HRP-conjugated secondary antibody solution (100 μL) in 1% BSA/PBS (Dako, Cambridge, UK) and the resultant signal is determined colourimetrically (OD: 450 nm with a reference wavelength of 655 nm) using TMB substrate (50 μL; R&D Systems, Abingdon, UK). This reaction is stopped by addition of 1N H2SO4 solution (50 μL). Cells are then washed with washing buffer and 2% crystal violet solution (50 μL) is applied for 30 min. After washing with washing buffer (3×200 μL), 1% SDS (100 μL) is added to each well and the plates are shaken lightly for 1 hr prior to measuring the absorbance at 595 nm (Varioskan® Flash, Thermo-Fisher Scientific).
The measured OD450-655 readings are corrected for cell number by dividing the OD450-655 by the OD595 readings.

c-Src = c-Src (Homo sapiens (Human), UniProt P12931); assay: c-Src enzyme inhibition (FRET, Z-LYTE); type: biochemical
Sequence of c-Src (P12931 whole entry, looked up): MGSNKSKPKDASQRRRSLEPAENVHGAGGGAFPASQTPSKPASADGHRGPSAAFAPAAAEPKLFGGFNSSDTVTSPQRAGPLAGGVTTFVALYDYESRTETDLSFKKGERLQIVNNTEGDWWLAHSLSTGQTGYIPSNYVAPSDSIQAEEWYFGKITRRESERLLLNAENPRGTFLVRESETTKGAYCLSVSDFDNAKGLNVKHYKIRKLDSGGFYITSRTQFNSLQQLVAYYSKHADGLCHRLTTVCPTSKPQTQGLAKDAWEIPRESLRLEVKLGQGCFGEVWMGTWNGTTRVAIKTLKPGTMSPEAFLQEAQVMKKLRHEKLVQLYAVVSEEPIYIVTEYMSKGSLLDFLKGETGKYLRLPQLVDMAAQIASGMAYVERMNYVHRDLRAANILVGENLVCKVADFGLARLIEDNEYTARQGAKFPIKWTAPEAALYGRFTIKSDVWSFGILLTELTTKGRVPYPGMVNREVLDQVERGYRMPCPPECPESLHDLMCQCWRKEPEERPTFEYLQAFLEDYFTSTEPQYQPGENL
Experimental: as §1, §2, §3

p38 MAPKα (MAPK14) = p38 MAPKα (MAPK14) (Homo sapiens (Human), UniProt Q16539); assay: p38 MAPKα enzyme inhibition (FRET, Z-LYTE; Method 2); type: biochemical
Sequence of p38 MAPKα (MAPK14) (Q16539 whole entry): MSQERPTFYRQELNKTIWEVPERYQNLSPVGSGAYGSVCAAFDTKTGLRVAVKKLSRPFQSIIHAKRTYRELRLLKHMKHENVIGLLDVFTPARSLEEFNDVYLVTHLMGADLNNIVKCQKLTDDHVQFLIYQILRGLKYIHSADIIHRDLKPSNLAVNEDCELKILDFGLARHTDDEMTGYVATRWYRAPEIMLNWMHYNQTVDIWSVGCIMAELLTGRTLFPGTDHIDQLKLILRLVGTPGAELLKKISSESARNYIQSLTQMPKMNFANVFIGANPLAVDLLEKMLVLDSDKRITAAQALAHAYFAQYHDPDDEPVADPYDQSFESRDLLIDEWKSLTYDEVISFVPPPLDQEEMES
Experimental: as §1
The inhibitory activities of test compounds against the p38 MAPKα isoform (MAPK14: Invitrogen) are evaluated indirectly by determining the level of activation\phosphorylation of the down-stream molecule, MAPKAP-K2. The p38 MAPKα protein (80 ng/mL, 2.5 μL) is mixed with the test compound (2.5 μL of either 4 μg/mL, 0.4 μg/mL, 0.04 μg/mL or 0.004 μg/mL) for 2 hr at RT. […] The mixture is incubated for 1 hr at RT. Development reagent (protease, 5 μL) is added for 1 hr prior to detection in a fluorescence microplate reader (Vanoskan® Flash, ThermoFisher Scientific).
as §3

Sequence of GSK 3α (P49840 whole entry): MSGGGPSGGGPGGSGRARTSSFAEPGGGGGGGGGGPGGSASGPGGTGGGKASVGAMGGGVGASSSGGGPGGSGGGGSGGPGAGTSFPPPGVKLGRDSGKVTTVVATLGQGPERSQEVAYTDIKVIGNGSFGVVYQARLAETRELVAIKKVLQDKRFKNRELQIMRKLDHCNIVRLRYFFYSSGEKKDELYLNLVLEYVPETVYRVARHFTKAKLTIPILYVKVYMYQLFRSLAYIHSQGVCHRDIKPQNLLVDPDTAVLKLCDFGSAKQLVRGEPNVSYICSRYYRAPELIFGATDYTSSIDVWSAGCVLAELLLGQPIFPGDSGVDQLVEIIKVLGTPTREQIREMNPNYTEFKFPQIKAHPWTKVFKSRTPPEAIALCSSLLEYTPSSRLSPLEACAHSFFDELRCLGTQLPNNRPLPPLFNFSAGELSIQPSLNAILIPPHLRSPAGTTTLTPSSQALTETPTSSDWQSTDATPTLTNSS

| SMILES | IC50 (GSK 3α) [nM] | IC50 (Syk) [nM] | IC50 (c-Src) [nM] | IC50 (p38 MAPKα (MAPK14)) [nM] | % β-catenin induction ([1]; test compound 1 μg/mL) [%] | % β-catenin induction ([1]; test compound 5 μg/mL) [%] | % β-catenin induction ([1]; test compound 10 μg/mL) [%] |
| --- | --- | --- | --- | --- | --- | --- | --- |
| COCCOCCOCCOc1cc(Nc2cc(Oc3ccc(NC(=O)Nc4cc(C(C)(C)C)cc(C(=O)NC5COC5)c4OC)c4ccccc34)ccn2)cc(OC)c1 [Example 77, 5-(tert-Butyl)-2-methoxy-3-(3-(4-((2-((3-methoxy-5-(2-(2-(2-methoxyethoxy)ethoxy)ethoxy)-phenyl)amino)pyridin-4-yl)oxy)naphthalen-1-yl)ureido)-N-(oxetan-3-yl)benzamide] | 3540 | 39 | 23 | 216 | −4 | −1 | −1 |
| COCCOCCOCCOc1cc(Nc2nccc(Oc3ccc(NC(=O)Nc4cc(C(C)(C)C)cc(NS(C)(=O)=O)c4OC)c4ccccc34)n2)cc(OC(F)F)c1 [Example 17, N-(5-(tert-Butyl)-3-(3-(4-((2-((3-(difluoromethoxy)-5-(2-(2-(2-methoxyethoxy)ethoxy)-ethoxy)phenyl)amino)pyrimidin-4-yl)oxy)naphthalen-1-yl)ureido)-2-methoxyphenyl)-methanesulfonamide] | 5460 | 149 | 40 | 179 | 5 | 23 | 23 |
| C#Cc1cc(Nc2nccc(Oc3ccc(NC(=O)Nc4cc(C(C)(C)C)cc(NS(C)(=O)=O)c4OC)c4ccccc34)n2)cc(C(=O)NCCN2CCOCC2)c1 [Example 1, 3-((4-((4-(3-(5-(tert-Butv)-2-methoxy-3-(methysulfonamido)phenyl)ureido)naphthalen-1-yl)oxy)pyrimidin-2-yl)amino)-5-ethynyl-N-(2-morpholinoethyl)benzamide] | 657 | 51 | 12 | 118 | 18 | 17 |  |

Second part, led by results:

| IC50 (GSK 3α) [nM] | IC50 (Syk) [nM] | IC50 (c-Src) [nM] | IC50 (p38 MAPKα (MAPK14)) [nM] | SMILES | % β-catenin induction ([1]; test compound 1 μg/mL) [%] | % β-catenin induction ([1]; test compound 5 μg/mL) [%] | % β-catenin induction ([1]; test compound 10 μg/mL) [%] |
| --- | --- | --- | --- | --- | --- | --- | --- |
| 2090 | 67 | 16 | 69 | COCCOCCOc1cc(Nc2nccc(Oc3ccc(NC(=O)Nc4cc(C(C)(C)C)cc(NS(C)(=O)=O)c4OC)c4ccccc34)n2)cc(OC)c1 [Example 36, N-(5-(tert-Butyl)-2-methoxy-3-(3-(4-((2-((3-methoxy-5-(2-(2-methoxyethoxy)ethoxy)-phenyl)amino)pyrimidin-4-yl)oxy)naphthalen-1-yl)ureido)phenyl)methanesulfonamide] | −4 | 28 | 18 |
| 5030 | 490 | 45 | 229 | C#Cc1cc(Nc2cc(Oc3ccc(NC(=O)Nc4cc(C(C)(C)C)cc(C(N)=O)c4OC)c4ccccc34)ccn2)cc(C(=O)NCCN2CCOCC2)c1 [Example 48, 3-((4-((4-(3-(5-(tert-Butyl)-3-carbamoyl-2-methoxyphenyl)ureido)naphthalen-1-yl)oxy)pyridin-2-yl)amino)-5-ethynyl-N-(2-morpholinoethyl)benzamide] | −2 | −4 | −3 |
| 4340 | 461 | 48 | 181 | COCCOCCOCCOc1cc(Nc2nccc(Oc3ccc(NC(=O)Nc4cc(C(C)(C)C)cc(NS(C)(=O)=O)c4OC)c4ccccc34)n2)cc(OC)c1Cl [Example 58, N-(5-(tert-Butyl)-3-(3-(4-((2-((4-chloro-3-methoxy-5-(2-(2-(2-methoxyethoxy)ethoxy)ethoxy)-phenyl)amino)pyrimidin-4-yl)oxy)naphthalen-1-yl)ureido)-2-methoxyphenyl)-methanesulfonamide] | 5 | 2 | 10 |
